Data reported in patent publication EP0023103A1, “Antifungal imidazole derivatives, process for their preparation and pharmaceutical compositions thereof” (Pfizer Limited, priority 1979, dated 1981).

Each compound was assayed on Candida albicans (assay: In vitro anti-fungal activity: minimum inhibitory concentration (m.i.c.) on agar plates). Settings: geometrical mean of results against a panel of 12 strains of Candida albicans; agar plates incubated for 48 hours at 37°C.
Type: cell-based
In the case of `C=CC(C)C(O)(Cn1ccnc1)c1ccc(Cl)cc1Cl` (single isomer, unassigned) [Example 3a, 2-(2,4-Dichlorophenyl)-1-(1-imidazolyl)-3-methyl-pent-4-en-2-ol], the Mean m.i.c. is reported as 18.0.
Work on `C=CC(C)C(O)(Cn1ccnc1)c1ccc(Cl)cc1Cl` (single isomer, unassigned) [Example 3b, 2-(2,4-Dichlorophenyl)-1-(1-imidazolyl)-3-methyl-pent-4-en-2-ol] yielded a Mean m.i.c. of 11.0.
Work on `C=CCC(O)(Cn1ccnc1)c1ccc(Cl)cc1Cl` (stereo not shown) [Example 1, 2-(2,4-Dichlorophenyl)-1-(1-imidazolyl)-pent-4-en-2-ol] yielded a Mean m.i.c. of 22.0.
Compound `CCCC(O)(Cn1ccnc1)c1ccc(Cl)cc1Cl` (stereo not shown) [Example 2, 2-(2,4-Dichlorophenyl)-1-(1-imidazolyl)-pentan-2-ol] has a Mean m.i.c. of 12.5.
Work on `CCC(C)C(O)(Cn1ccnc1)c1ccc(Cl)cc1Cl` (stereo not shown) [Example 4, 2-(2,4-Dichlorophenyl)-1-(1-imidazolyl)-3-methyl-pentan-2-ol] yielded a Mean m.i.c. of 12.0.
Compound `CCC(O)(Cn1ccnc1)c1ccc(Cl)cc1Cl` (stereo not shown) [Example 5, 2-(2,4-dichlorophenyl)-1-(1-imidazolyl)-butan-2-ol] has a Mean m.i.c. of 21.0.
`CCCCC(O)(Cn1ccnc1)c1ccc(Cl)cc1Cl` (stereo not shown) [Example 6] was tested, and the Mean m.i.c. was 3.8.
Compound `CC(C)(C)C(O)(Cn1ccnc1)c1ccc(Cl)cc1Cl` (stereo not shown) [Example 7] has a Mean m.i.c. of 11.0.
In the case of `CC(C)C(O)(Cn1ccnc1)c1ccc(Cl)cc1Cl` (stereo not shown) [Example 8], the Mean m.i.c. is reported as 21.0.
`CCCCCC(O)(Cn1ccnc1)c1ccc(Cl)cc1Cl` (stereo not shown) [Example 9] showed a Mean m.i.c. of 5.2.
For `CCCCCCC(O)(Cn1ccnc1)c1ccc(Cl)cc1Cl` (stereo not shown) [Example 10, 2-(2,4-dichlorophenyl)-1-(1-imidazolyl)-octan-2-ol], the Mean m.i.c. was 3.1.
`C=CCCC(O)(Cn1ccnc1)c1ccc(Cl)cc1Cl` (stereo not shown) [Example 11] gave a Mean m.i.c. of 6.8.
Compound `OC(CC1CC1)(Cn1ccnc1)c1ccc(Cl)cc1Cl` (stereo not shown) [Example 15] has a Mean m.i.c. of 6.3.
`CC(C)CC(O)(Cn1ccnc1)c1ccc(Cl)cc1Cl` (stereo not shown) [Example 16] gave a Mean m.i.c. of 5.6.
For `C=CCCCC(O)(Cn1ccnc1)c1ccc(Cl)cc1Cl` (stereo not shown) [Example 17], the Mean m.i.c. was 8.4.
`CC(C)CCC(O)(Cn1ccnc1)c1ccc(Cl)cc1Cl` (stereo not shown) [Example 18] showed a Mean m.i.c. of 3.8.
`CCCCCCCC(O)(Cn1ccnc1)c1ccc(Cl)cc1Cl` (stereo not shown) [Example 19] was tested, and the Mean m.i.c. was 5.6.
Compound `CCCCC(O)(Cn1ccnc1)c1ccc(Cl)cc1` (stereo not shown) [Example 20, 2-(4-Chlorophenyl)-1-(1-imidazolyl)-hexan-2-ol] has a Mean m.i.c. of 38.0.
`CCCCC(O)(Cn1ccnc1)c1ccccc1Cl` (stereo not shown) [Example 21, 2-(2-Chlorophenyl)-1-(1-imidazolyl)-hexan-2-ol] showed a Mean m.i.c. of 18.0.
